Data on 35 compounds can be found in ChEMBL document CHEMBL3351246, “Discovery of triazines as selective PDE4B versus PDE4D inhibitors” (Bioorg Med Chem Lett, 2014).

The structures appear in SMILES notation.

Assay [1] addresses T1, 3',5'-cyclic-AMP phosphodiesterase 4B (Homo sapiens, UniProt Q07343). The assay can be described thus: Inhibition of human PDE4B.
For assay [2], the target named is T2, 3',5'-cyclic-AMP phosphodiesterase 4D (Homo sapiens, UniProt Q08499). The assay can be described thus: Inhibition of human PDE4D.
T2 sequence (Q08499 whole entry): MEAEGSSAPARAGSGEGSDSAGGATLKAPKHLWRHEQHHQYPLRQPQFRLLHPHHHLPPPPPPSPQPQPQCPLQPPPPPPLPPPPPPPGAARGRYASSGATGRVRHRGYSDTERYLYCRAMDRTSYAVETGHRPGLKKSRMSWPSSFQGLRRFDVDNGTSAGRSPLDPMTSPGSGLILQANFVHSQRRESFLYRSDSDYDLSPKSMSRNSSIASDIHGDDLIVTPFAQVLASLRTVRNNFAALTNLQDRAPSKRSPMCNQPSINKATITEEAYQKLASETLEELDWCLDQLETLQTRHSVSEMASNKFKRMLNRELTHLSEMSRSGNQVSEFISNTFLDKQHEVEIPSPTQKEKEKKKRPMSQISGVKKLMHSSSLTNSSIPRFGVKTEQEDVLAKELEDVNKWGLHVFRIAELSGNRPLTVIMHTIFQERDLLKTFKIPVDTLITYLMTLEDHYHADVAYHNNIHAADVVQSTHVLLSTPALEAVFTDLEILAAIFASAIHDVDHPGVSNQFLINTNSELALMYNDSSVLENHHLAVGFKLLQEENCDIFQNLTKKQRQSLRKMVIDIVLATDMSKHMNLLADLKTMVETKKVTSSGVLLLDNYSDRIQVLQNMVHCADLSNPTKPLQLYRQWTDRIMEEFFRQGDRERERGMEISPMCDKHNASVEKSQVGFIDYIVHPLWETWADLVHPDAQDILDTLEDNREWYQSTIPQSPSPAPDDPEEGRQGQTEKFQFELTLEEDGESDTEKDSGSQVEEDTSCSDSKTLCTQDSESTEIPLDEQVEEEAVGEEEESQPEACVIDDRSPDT
The species entered for a further assay is Homo sapiens. The assay can be described thus: Selectivity index, ratio of IC50 for human PDE4D to IC50 for human PDE4B.
The target in assay [3] is T1, 3',5'-cyclic-AMP phosphodiesterase 4B. The assay can be described thus: Inhibition of human PDE4B1.
Assay [4] concerns the target T2, 3',5'-cyclic-AMP phosphodiesterase 4D. The assay can be described thus: Inhibition of human PDE4D7.

T1 sequence (Q07343 whole entry): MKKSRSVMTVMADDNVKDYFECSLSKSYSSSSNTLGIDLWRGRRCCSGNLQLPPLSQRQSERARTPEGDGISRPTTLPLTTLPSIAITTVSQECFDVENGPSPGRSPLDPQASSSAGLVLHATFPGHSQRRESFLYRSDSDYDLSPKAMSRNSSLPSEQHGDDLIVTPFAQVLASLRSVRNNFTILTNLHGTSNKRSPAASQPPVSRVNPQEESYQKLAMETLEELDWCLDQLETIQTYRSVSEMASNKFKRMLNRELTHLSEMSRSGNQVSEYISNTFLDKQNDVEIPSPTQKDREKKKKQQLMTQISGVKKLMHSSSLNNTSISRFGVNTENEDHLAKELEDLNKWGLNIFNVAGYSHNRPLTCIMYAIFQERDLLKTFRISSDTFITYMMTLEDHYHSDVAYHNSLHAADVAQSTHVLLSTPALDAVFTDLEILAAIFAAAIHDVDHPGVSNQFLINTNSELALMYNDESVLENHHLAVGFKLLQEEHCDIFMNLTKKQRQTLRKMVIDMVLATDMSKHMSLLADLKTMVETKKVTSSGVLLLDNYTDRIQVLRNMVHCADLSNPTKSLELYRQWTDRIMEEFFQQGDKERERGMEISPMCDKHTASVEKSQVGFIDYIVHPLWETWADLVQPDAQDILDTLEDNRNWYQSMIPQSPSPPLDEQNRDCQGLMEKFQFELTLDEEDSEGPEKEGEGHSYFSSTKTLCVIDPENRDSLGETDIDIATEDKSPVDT

As for `O=C(O)Cc1ccc(Nc2nc(-c3cccc(F)c3)nc(C3CC3)n2)cc1`, the values for the IC50 in assay [1] (read-out: IC50) and in assay [2] (read-out: IC50) were 1440 nM and 2110 nM, respectively. Besides, in the assay listed under Homo sapiens, the Ratio IC50 amounted to 1.5.

For the compound `CCc1nc(Nc2ccc(C#N)cc2)nc(-c2cccc(Cl)c2)n1`, the 50% inhibitory concentration (IC50) came to 12 nM in assay [1] (read-out: IC50) and 13 nM in assay [2] (read-out: IC50). For the same compound, the Ratio IC50 in the assay listed under Homo sapiens was 1.1.

Take `O=C(O)Cc1ccc(Nc2nc(-c3ccc(Cl)cc3)nc(C3CC3)n2)cc1`: the IC50 in assay [1] (read-out: IC50) is 3770 nM; in assay [2] (read-out: IC50), 5610 nM. For the same compound, in the assay listed under Homo sapiens, the Ratio IC50 worked out at 1.5.

As for `CCc1nc(Nc2ccc(C(C)C(=O)O)cc2)nc(-c2cccc(Cl)c2)n1` (stereo not given), the IC50 worked out at 1090 nM in assay [1] (read-out: IC50) and 96 nM in assay [2] (read-out: IC50). In addition, in the assay listed under Homo sapiens, the Ratio IC50 amounted to 0.09.

Consider `CCOc1nc(Nc2ccc(OC)cc2)nc(OCC)n1`, for which the figures for the IC50 in assay [3] and in assay [4] were 6700 nM and 2300 nM, respectively.

With `CCc1nc(Nc2ccc(C(=O)O)cc2)nc(-c2ccc(Cl)s2)n1`, the IC50 in assay [1] (read-out: IC50) amounted to 261 nM; in assay [2] (read-out: IC50), 251 nM. Besides, in the assay listed under Homo sapiens, the Ratio IC50 turned out to be 1.

`CCCc1nc(Nc2ccc(CC(=O)O)cc2)nc(-c2ccc(Cl)s2)n1`: the IC50 in assay [1] (read-out: IC50) came to 2450 nM.

For `CCc1nc(Nc2ccc(NS(N)(=O)=O)cc2)nc(-c2cccc(Cl)c2)n1`, the concentration for half-maximal inhibition (IC50) in assay [1] (read-out: IC50) worked out at 402 nM; in assay [2] (read-out: IC50), 160 nM. Moreover, the Ratio IC50 in the assay filed under Homo sapiens was 0.4.

`CCc1nc(Nc2ccc(CC(=O)O)cc2)nc(-c2ccoc2)n1`: the IC50 in assay [1] (read-out: IC50) was determined as 2780 nM.

Regarding `Cc1nc(Nc2ccc(C(=O)O)cc2)nc(-c2ccc(Cl)s2)n1`, in assay [1] (read-out: IC50), the IC50 worked out at 4050 nM.

Regarding `CCc1nc(Nc2ccc(CC(=O)O)cc2)nc(-c2cccc(Cl)c2)n1`, the IC50 amounted to 781 nM in assay [1] (read-out: IC50) and 681 nM in assay [2] (read-out: IC50). Also, the Ratio IC50 in the assay filed under Homo sapiens was 0.9.

Regarding `CCc1nc(Nc2ccc(-c3nn[nH]n3)cc2)nc(-c2cccc(Cl)c2)n1`, the IC50 in assay [1] (read-out: IC50) was determined as 126 nM; in assay [2] (read-out: IC50), 132 nM.

`CC(C)c1nc(Nc2ccc(CC(=O)O)cc2)nc(-c2ccc(Cl)s2)n1`: the concentration for half-maximal inhibition (IC50) came out at 1940 nM in assay [1] (read-out: IC50) and 3580 nM in assay [2] (read-out: IC50). For the same compound, in the assay listed under Homo sapiens, the Ratio IC50 came out at 1.8.

In the case of `O=C1NCCN1c1ccc(Nc2nc(-c3cccc(Cl)c3)nc(C3CC3)n2)cc1`, the IC50 entry in assay [1] and in assay [2] was “Not Active” throughout.

`O=C(O)Cc1ccc(Nc2nc(-c3cccc(Cl)c3)nc(C3CC3)n2)cc1`: the IC50 in assay [1] (read-out: IC50) is 237 nM; in assay [2] (read-out: IC50), 1180 nM. For the same compound, in the assay listed under Homo sapiens, the Ratio IC50 is 5.

In the case of `CCc1nc(Nc2ccc(CC(=O)O)cc2)nc(-c2ccc(Cl)s2)n1`, the results for the IC50 in assay [1] (read-out: IC50) and in assay [2] (read-out: IC50) were 383 nM and 865 nM, respectively. Besides, the Ratio IC50 in the assay filed under Homo sapiens stood at 2.3.

Turning to `CCc1nc(Nc2ccc(Cc3nnn[nH]3)cc2)nc(-c2cccc(Cl)c2)n1`, the IC50 in assay [1] (read-out: IC50) was found to be 69 nM; in assay [2] (read-out: IC50) it was 63 nM. The Ratio IC50 in the assay listed under Homo sapiens was determined as 0.9.

As for `CCc1nc(Nc2ccc(C(C)(C)C(=O)O)cc2)nc(-c2cccc(Cl)c2)n1`, the results for the IC50 in assay [1] (read-out: IC50) and in assay [2] (read-out: IC50) were 1570 nM and 600 nM, respectively. The Ratio IC50 in the assay filed under Homo sapiens came to 0.4.

For `CC(C)c1nc(Nc2ccc(C(=O)O)cc2)nc(-c2ccc(Cl)s2)n1`, the IC50 in assay [1] (read-out: IC50) worked out at 220 nM; in assay [2] (read-out: IC50), 219 nM. Besides, in the assay listed under Homo sapiens, the Ratio IC50 stood at 1.

With `O=C(O)c1ccc(Nc2nc(-c3cccc(Cl)c3)nc(C3CC3)n2)cc1`, the IC50 in assay [1] (read-out: IC50) was determined as 46 nM; in assay [2] (read-out: IC50), 20 nM. The Ratio IC50 in the assay listed under Homo sapiens came out at 0.4.

Regarding `CCc1c(C)nc(-c2ccc(Cl)s2)nc1Nc1ccc(CC(=O)O)cc1`, the IC50 in assay [3] came to 55 nM; in assay [4] it was 2000 nM.

`Cc1nc(Nc2ccc(CC(=O)O)cc2)nc(-c2ccc(Cl)s2)n1`: in assay [1] (read-out: IC50), the IC50 worked out at 1290 nM.

Regarding `O=C(O)c1ccc(Nc2nc(-c3ccc(Cl)cc3)nc(C3CC3)n2)cc1`, the half-maximal inhibitory concentration (IC50) in assay [1] (read-out: IC50) turned out to be 135 nM; in assay [2] (read-out: IC50), 268 nM. Further, the Ratio IC50 in the assay filed under Homo sapiens amounted to 2.

For the compound `CCc1nc(Nc2ccc(C(=O)O)cc2)nc(-c2cccc(Cl)c2)n1`, the half-maximal inhibitory concentration (IC50) worked out at 241 nM in assay [1] (read-out: IC50) and 213 nM in assay [2] (read-out: IC50). Further, in the assay listed under Homo sapiens, the Ratio IC50 is 0.9.

Regarding `CCc1nc(Nc2ccc(F)cc2)nc(-c2ccc(Cl)s2)n1`, the IC50 in assay [1] (read-out: IC50) worked out at 1390 nM; in assay [2] (read-out: IC50) it was 207 nM. For the same compound, the Ratio IC50 in the assay filed under Homo sapiens was found to be 0.15.

Consider `O=C(O)Cc1ccc(CNc2nc(-c3ccc(Cl)cc3)nc(C3CC3)n2)cc1`, for which the 50% inhibitory concentration (IC50) amounted to 2280 nM in assay [1] (read-out: IC50) and 859 nM in assay [2] (read-out: IC50). Moreover, the Ratio IC50 in the assay filed under Homo sapiens worked out at 0.38.

Take `Cc1nc(Nc2ccc(CC(=O)O)cc2)nc(-c2ccco2)n1`: the 50% inhibitory concentration (IC50) came out at 18800 nM in assay [1] (read-out: IC50) and 22300 nM in assay [2] (read-out: IC50). Also, the Ratio IC50 in the assay listed under Homo sapiens worked out at 1.2.

Regarding `O=C1CCC(NC2=NC(C3CC3)NC(c3cccc(Cl)c3)=N2)CN1` (stereo not given), the half-maximal inhibitory concentration (IC50) came to 135 nM in assay [1] (read-out: IC50) and 268 nM in assay [2] (read-out: IC50). For the same compound, the Ratio IC50 in the assay listed under Homo sapiens is 2.

For `O=C(O)Cc1ccc(Nc2nc(-c3ccc(Cl)s3)nc(C3CC3)n2)cc1`, the IC50 in assay [1] (read-out: IC50) amounted to 251 nM; in assay [2] (read-out: IC50) it was 1490 nM. Further, the Ratio IC50 in the assay filed under Homo sapiens is 5.9.

As to `CCc1nc(Nc2ccc(-c3nnn[nH]3)cc2)nc(-c2cccc(Cl)c2)n1`, the Ratio IC50 in the assay listed under Homo sapiens is 1.

In the case of `CCc1nc(Nc2ccc(CC#N)cc2)nc(-c2cccc(Cl)c2)n1`, the IC50 in assay [1] (read-out: IC50) was found to be 165 nM; in assay [2] (read-out: IC50) it was 7 nM. For the same compound, the Ratio IC50 in the assay listed under Homo sapiens was 0.04.

As to `CCc1nc(Nc2ccc(CC(=O)O)cc2)nc(-c2ccc(F)cc2)n1`, the results for the IC50 in assay [1] (read-out: IC50) and in assay [2] (read-out: IC50) were 1460 nM and 727 nM, respectively. Further, the Ratio IC50 in the assay filed under Homo sapiens was 0.5.

Consider `CC(C)c1nc(Nc2ccc(F)cc2)nc(-c2ccc(Cl)s2)n1`, for which the IC50 in assay [1] (read-out: IC50) came to 8820 nM; in assay [2] (read-out: IC50), 886 nM.

In the case of `O=C(O)Cc1ccc(CNc2nc(-c3cccc(Cl)c3)nc(C3CC3)n2)cc1`, the IC50 was determined as 845 nM in assay [1] (read-out: IC50) and 726 nM in assay [2] (read-out: IC50). Also, the Ratio IC50 in the assay filed under Homo sapiens was found to be 0.86.

As to `O=C(O)Cc1ccc(Oc2nc(-c3cccc(Cl)c3)nc(C3CC3)n2)cc1`, the IC50 in assay [1] (read-out: IC50) was found to be 1860 nM; in assay [2] (read-out: IC50), 2270 nM. In addition, the Ratio IC50 in the assay filed under Homo sapiens is 1.2.
